According to article PMC9206137, “Synergistic anti-SARS-CoV-2 activity of repurposed anti-parasitic drug combinations” (BMC Pharmacology & Toxicology, 2022):
“And” between values parts separate entries of the source, which are not always exact repeats. Equal entries are not always repeated.

What was measured:
SARS-CoV-2 [1] = assay: Antiviral activity against SARS-CoV-2 in Vero E6 cells, one-step qRT-PCR (single drugs, two-drug combinations, synergy analysis); conditions: for %inhibition (qRT-PCR) / % inhibition: replicates; for % inhibition: Vero E6 cells
SARS-CoV-2 [2] = assay: Antiviral activity against SARS-CoV-2 in Vero E6 cells, plaque assay; type: cell-based
SARS-CoV-2 [3] = conditions: because of the expression of TMPRSS2; cited from earlier work
[4] = Cell viability assay (MTT) in Vero E6 cells; conditions: African green monkey, %cell viability, Vero E6, replicates
Description: Subsequently, the cell viability was assessed using MTT dyes (Invitrogen) in duplicate (Supplementary file 1). The procedure was described elsewhere. The viability of drug-treated cells was expressed as percent cell viability relative to 0.5% DMSO-treated cells.

CCN(CC)CCCC(C)Nc1ccnc2cc(Cl)ccc12 (stereo not shown) [Chloroquine, chloroquine]
%inhibition (qRT-PCR) (SARS-CoV-2 [1]; Vero E6, chloroquine 0.15625 uM): 14.20% and 15.40% and 13.50%
%inhibition (qRT-PCR) (SARS-CoV-2 [1]; Vero E6, chloroquine 0.3125 uM): 29.59% and 23.98%
%inhibition (qRT-PCR) (SARS-CoV-2 [1]; Vero E6, chloroquine 0.625 uM): 47.22% and 54.26% and 49.79%
%inhibition (qRT-PCR) (SARS-CoV-2 [1]; Vero E6, chloroquine 1.25 uM): 51.48% and 58.46% and 54.05%
%inhibition (qRT-PCR) (SARS-CoV-2 [1]; Vero E6, chloroquine 2.5 uM): 67.75% and 70.05% and 70.73%
%inhibition (qRT-PCR) (SARS-CoV-2 [1]; Vero E6, chloroquine 5 uM): 88.11% and 84.26% and 88.40%
% inhibition (SARS-CoV-2 [1]; Chloroquine 0.2125 uM alone): 32.17% and 30.26% and 30.74%
% inhibition (SARS-CoV-2 [1]; Chloroquine 0.425 uM alone): 35.38% and 45.66% (2×)
% inhibition (SARS-CoV-2 [1]; Chloroquine 0.85 uM alone): 58.25% and 55.25% and 59.67%
% inhibition (SARS-CoV-2 [1]; Chloroquine 1.7 uM alone): 76.18% and 70.48% and 73.21%
IC50 (SARS-CoV-2 [1]; read-out: IC50 (μM) qRT-PCR, Vero E6, MOI 0.01, 48 hours, single drug): 0.89 µM
inhibition at 0.625 µM (SARS-CoV-2 [2]; Severe acute respiratory syndrome coronavirus 2, Vero C1008, Vero E6, chloroquine 0.625 uM, replicates): 50%
inhibition at 1.25 µM (SARS-CoV-2 [2]; Severe acute respiratory syndrome coronavirus 2, Vero C1008, Vero E6, chloroquine 1.25 uM, replicates): 61.4%
inhibition at 2.5 µM (SARS-CoV-2 [2]; Severe acute respiratory syndrome coronavirus 2, Vero C1008, Vero E6, chloroquine 2.5 uM, replicates): 70%
inhibition at 5 µM (SARS-CoV-2 [2]; Severe acute respiratory syndrome coronavirus 2, Vero C1008, Vero E6, chloroquine 5 uM, replicates): 85.1%
IC50 (SARS-CoV-2 [2]; Severe acute respiratory syndrome coronavirus 2, Vero C1008, Vero E6, MOI 0.01, 48 hours, single drug): 0.83 µM
%inhibition (plaque assay) (SARS-CoV-2 [2]; Vero E6, chloroquine 0.15625 uM, replicates): 5.00% and 10.00%
%inhibition (plaque assay) (SARS-CoV-2 [2]; Vero E6, chloroquine 0.3125 uM, replicates): 15.00% and 6.06% and 11.00%
%inhibition (plaque assay) (SARS-CoV-2 [2]; Vero E6, chloroquine 0.625 uM, replicates): 55.50%
%inhibition (plaque assay) (SARS-CoV-2 [2]; Vero E6, chloroquine 1.25 uM, replicates): 73.20% and 66.30%
%inhibition (plaque assay) (SARS-CoV-2 [2]; Vero E6, chloroquine 2.5 uM, replicates): 75.00% and 69.50%
%inhibition (plaque assay) (SARS-CoV-2 [2]; Vero E6, chloroquine 5 uM, replicates): 87.00% and 85.00%
inhibition of SARS-CoV-2 in human lung cells (SARS-CoV-2 [3]): could not inhibit
viability at 48 h, 40 uM ([4]; chloroquine 40 uM): 78.5%
viability at 48 h, 160 uM ([4]; chloroquine 160 uM): 34.5%
